Data set [1] has as its system PHA-stimulated PBMC (T cell proliferation). Kind of data set: T cell proliferation assay. Format: cell-based, human. The note with it: 3H-thymidine incorporation; 10 micrograms per ml.
Method: Human Peripheral Blood Mononuclear Cells (PBMC) were obtained from normal human donors. The T cell proliferation was induced by stimulation of the cells with the T cell mitogen phytohemagglutinin (PHA), either in the absence (positive proliferation control), or in the presence of test peptide—10 micrograms per ml—to examine their effects on the T cell proliferating response. 10^5/well PBMC were plated in 96-well microtiter plates and assayed in duplicate with the peptide. Cell cultures were incubated at 37° C. for 3 days in a 5% CO2 incubator and were thereafter pulsed with 1 microCi/well ^3H-thymidine for additional 12 hours of culture. At the end of incubation time, the plates were harvested and the cells counted by liquid scintillation for the incorporation of ^3H-thymidine as a measure of T cell proliferation.
In data set [2] the test system is A549 cells. Kind of data set: Apoptosis induction assay (Annexin-5). Format: cell-based, human. Conditions: 10 micrograms per ml, 24 hours. The text has this: Human A549 cells (carcinomic human alveolar basal epithelial cells) were utilized in the experiments employing the Annexin-5 apoptosis assay. Annexin-5 is a member of a highly conserved protein family that binds acidic phospholipids in a calcium-dependent manner. […] Phosphatidylserine is translocated from the inner side of the plasma membrane to the outer layer when cells undergo death by apoptosis or cell necrosis and serves as a signal by which cell destined for death are recognized by phagocytes. Test peptide—10 micrograms per ml—were exposed for 24 hours to the A549 cells before they were analyzed for signs of apoptosis.

Data set [3] relates to HIV-1IIIB. Kind of data set: HIV-1 antiviral assay, CPE reduction (MTS). Conditions: peptide 10 micrograms per ml; 6 days post-infection.
The subject of data set [4] is HepG2-2.2.15 cells. As to the kind of experiment: HBV assay cytotoxicity, dye uptake cell viability. It counts as cell-based. Conditions: peptide 10 micrograms per ml.
In data set [5] the test system is CEM-SS cells. Kind of data set: HIV-1 assay cytotoxicity, MTS cell viability. Conditions: peptide 10 micrograms per ml.
Data set [6] concerns HUVEC. As to the kind of experiment: Endothelial tube formation assay. Format: cell-based, human. The note with it: 10 micrograms per ml, 20 hours. As for the experimental part: The endothelial tube formation assay is based on the ability of endothelial cells to form three-dimensional capillary-like tubular structures when cultured on a gel of basement membrane extract. The endothelial tube formation assay represents a powerful model for studying inhibition and induction of angiogenesis. Pre-labeled HUVEC with Calcein AM were seeded in a 96-well culture plate coated with extracellular metrix (Chemicon international Cat. ECM625) and treated with test peptide—10 micrograms per ml—in full growth medium. Positive control was vehicle only. The endothelial cells were allowed to form tubes foe 20 hours and were then examined under an inverted fluorescent microscope. Duplicate wells for each treatment were photographed and quantitatevily analyzed for an average tubule length using image analysis software ImageProPlus. Raw data were expressed as average tubule lenghs in pixels±standard deviation. Statistic p values were computed using the Student's t-test.

Data set [7] relates to Streptococcus pneumoniae. Kind of data set: Streptococcus pneumoniae assay. It counts as cell-based. The note with it: Streptococcus pneumoniae growth; peptide 10 micrograms per ml. The protocol:
(§1) The antibacterial assay was conducted using clear, U-bottom 96-well microtiter plates. Cation-adjusted Mueller-Hinton Broth (MHB) was used for testing Streptococcus pneumoniae. The peptide of the invention (0.1 ml of each—10 micrograms per ml—) was dispensed into wells in duplicate. Then the wells were inoculated with 5×10^5 CFU/mL Streptococcus pneumoniae in 0.1 ml volume. For control purposes, each plate included 4 wells containing media without bacterial inoculum and 4 wells containing medium with inoculum but without peptide. The plates were incubated for 12 h at 37° C., and read visually 18-24 hours post-incubation. Growth control of Streptococcus pneumoniae was examined first to determine adequacy of media preparations and growth conditions. Acceptable growth is defined as ≧2 mm wide button of cells at the bottom of each sample well, or obvious turbidity in the culture supernatant. Test wells were examined and scored as positive/negative for activity. A positive score for activity is based on complete inhibition of macroscopic growth of the test Streptococcus pneumoniae.

Data set [8] concerns A549 cells. Kind of data set: Propidium iodide cell cycle assay. Format: cell-based, human. Conditions: 10 micrograms per ml, 24 hours. The protocol: Human A549 cells (carcinomic human alveolar basal epithelial cells) were utilized in the experiments employing the Propidium iodide cell cycle assay. The eukaryotic cell cycle is a series of events that take place in a cell leading to its replication.
Propidium iodide is an intercalating agent and a fluorescent molecule that can be used to stain DNA. Cells were incubated for 24 hours with test peptide—10 micrograms per ml—or left untreated. After that cells were trypsinized, suspended in medium+10% FCS, centrifuged (1000 rpm, 5 min), and the cell pellet resuspended in PBS (1 ml). The cells were pipetted into 2.5 ml absolute EtOH (final concentration approx. 70%) and incubated on ice for 15 min. Thereafter, cells were pelleted at 1500 rpm for 5 min and resuspended in Propidium iodide solution in PBS. After incubation for 40 min at 37° C., cells were analyzed in the FACS.

The test system of data set [9] is Pseudomonas aeruginosa. Kind of data set: Pseudomonas aeruginosa assay. It counts as cell-based. Conditions: Pseudomonas aeruginosa growth; peptide 10 micrograms per ml. As for the experimental part: as §1, with “Pseudomonas aeruginosa.” for “Streptococcus pneumoniae.”, “Pseudomonas aeruginosa” for “Streptococcus pneumoniae”
In data set [10] the test system is A549 cells. Kind of data set: Apoptosis prevention assay (Annexin-5, C2 ceramide). Format: cell-based, human. Conditions: A549 cells pretreated 30 min; 10 micrograms per ml. The text has this:
Human A549 cells (carcinomic human alveolar basal epithelial cells) were utilized in the experiments employing the Annexin-5 apoptosis assay. Annexin-5 is a member of a highly conserved protein family that binds acidic phospholipids in a calcium-dependent manner. […] Phosphatidylserine is translocated from the inner side of the plasma membrane to the outer layer when cells undergo death by apoptosis or cell necrosis and serves as a signal by which cell destined for death are recognized by phagocytes. A549 cells were pretreated for 30 min with test peptide—10 micrograms per ml—followed by the exposure to C2 ceramide. Ceramide mediates cell apoptosis through the activation of the mitogen activating protein kinase (MAPK) and the stress activated kinase (JNK/SAPK). C2 ceramide is a synthetic, membrane soluble analog of ceramide.

In data set [11] the test system is HCMV strain AD169. Kind of data set: HCMV plaque reduction assay. It counts as cell-based. Conditions: HCMV in MRC-5 cells; peptide 10 micrograms per ml; 7-10 days. An excerpt: (§2) Cells were split twic a week 1:2.
Ganciclovir was used as positive control.

The subject of data set [12] is Ovalbumin-restimulated spleen cells. As to the kind of experiment: Th1/Th2 cytokine profiling assay. The note with it: 10 micrograms per ml; 72 hours. Format: cell-based, Balb/c mice. The text has this: The Balb/c mice (originated in 1923, it is a popular strain and is used in many different research disciplines. Also classified as an inbred from the production of 20 or more successive brother-sister matings, the Balb/c mouse is albino and small in size) were immunized on Days 1, 15, and 29 with Ovalbumin (Ovalbumin is the main protein found in egg white, commonly used to stimulate an immunological reaction in test animals) in PBS (5 micrograms/injection). On day 50, spleens of the mice were harvested (3 weeks after last boost with Ovalbumin). Cells were cultured (2×10^5/well in triplicate) and incubated with culture medium or test peptide—10 micrograms per ml—for 30 min. Thereafter, additional Ovalbumin was added to the cells at 10 micrograms/ml for in vitro restimulation of the cells. 72 hours later, cell supernatants were harvested and assayed using the Becton Dickinson Mouse Th1/Th2 Cytokine CBA Kit. This kit can be used to measure Interleukin-2 (IL-2), Interleukin-4 (IL-4), Interleukin-5 (IL-5), Interferon-γ (IFN-γ), and Tumor Necrosis Factor-α (TNF-α) protein levels in a single sample. The kit performance has been optimized for analysis of physiologically relevant concentrations (pg/ml levels) of specific cytokine proteins in tissue culture supernatants and serum samples.

In data set [13] the test system is MRSA. As to the kind of experiment: Methicillin resistant Staphylococcus aureus (MRSA) assay. Format: cell-based. The note with it: MRSA growth; peptide 10 micrograms per ml. The protocol: as §1, with “MRSA.” for “Streptococcus pneumoniae.”, “MRSA” for “Streptococcus pneumoniae”, “2” for “≧2”
Data set [14] relates to MRC-5 cells. Kind of data set: HCMV assay cytotoxicity testing, CellTiter 96. Format: cell-based, human. The note with it: 6 days incubation. As for the experimental part:
as §2
For cytotxicity testing, MRC-5 cells were seeded at 2,500 cells/well in 96 well plates using growth medium. […] The following day, peptide was added and tested in duplicates. After a 6 days incubation period, cell viability was measured using CellTiter 96 Solution (Promega). Plates were incubated for additional 4 hours at 37° C.

Data set [15] has as its system HUVEC. As to the kind of experiment: Endothelial cell migration assay. It counts as cell-based, human. The note with it: 10 micrograms per ml, 22 hours. The protocol: Endothelial cell migration is a prerequisite for the process of neo-vascularization or angiogenesis which is crucial for on-site recruitment of blood vessel formation. Primary Human endothelial cells (HUVEC) were seeded in insert chambers with 3 micrometer pore size of multi-transwell plate for 6 hours at 37° C. in Endothelial Cell Basal Medium (EBM) supplemented with 0.1% bovine serum albumin. Thereafter, designated concentration of test peptide—10 micrograms per ml—was added in duplicate wells. The endothelia were allowed to migrate for 22 hours at 37° C., then, migrated cells were fixed and stained with Hoechst 33342 dye. Images of 3 fields per insert were taken and the number of migrated cells per field were quantified using the ImageProPlus software. Data were analyzed for the average number of the migrated cells and standard deviation of six data points for each treatment condition. Active test peptide against HUVEC migration was determined based on 50% inhibition of migrated cells as compared with the control. Statistic p values were computed using the Student's t-test.

Results on 3 compounds are retold here after US8541364B2, “Use of a octreotide as a therapeutic agent” (Mondobiotech Laboratories AG, priority 2007, dated 2013).

For the compound `C[C@@H](O)[C@@H]1NC(=O)[C@H](CCCCN)NC(=O)[C@@H](Cc2c[nH]c3ccccc23)NC(=O)[C@H](Cc2ccccc2)NC(=O)[C@@H](NC(=O)[C@H](N)Cc2ccccc2)CSSC[C@@H](C(=O)N[C@H](CO)[C@@H](C)O)NC1=O` [Octreotide, D-Phe-Cys-Phe-D-Trp-Lys-Thr-Cys-L-threoninol], in data set [1], the “% of PHA induced control” value came to 100.0%. Further, in data set [2], the “% of induction” value came out at 2.6%. The “% CPE reduction in HIV-1 infected CEM-SS cells” value (“% CPE reduction” below) in data set [3] came to 0.0%. Moreover, the “% Cell viability” value in data set [4] is 97.8%; in data set [5], 100%; in data set [14] it was 100%. In addition, the “% inhibition of tube formation” value in data set [6] was determined as 8%. Further, the “% inhibition” value in [7] was 100.0%; in [9], 0.0%; in data set [13], 0.0%. For the same compound, the “Cell cycle analysis G2/M” value in [8] stood at 9.2. The “% prevention of ceramide induced apoptosis” value in [10] is reported as 0.0%. Further, the “% plaque reduction” value in data set [11] was 0.0%. For the same compound, in data set [12], the “IFNγ spleen cells; TH1 response (% of control)” value is listed as 56.0 % of control. The “% inhibition of migration” value in data set [15] is reported as −24%.

With `Cc1cn([C@H]2C[C@H](N=[N+]=[N-])[C@@H](CO)O2)c(=O)[nH]c1=O` [AZT, reference compound], the “% CPE reduction” value in data set [3] worked out at 99%. For the same compound, in data set [5], the “% Cell viability” value came out at 97%.

In the case of `CC(C)(C)NC(=O)[C@@H]1CN(Cc2cccnc2)CCN1C[C@@H](O)C[C@@H](Cc1ccccc1)C(=O)N[C@H]1c2ccccc2C[C@H]1O` [Indinavir], the “% CPE reduction” value in data set [3] worked out at 100%.
